The record followed here is patent US5128376A, “Method for percutaneously administering physiologically active agents using an adjuvant a solvent and a diol moderator” (priority 1990, dated 1992).

Counter-ions that a name gives are not always drawn. Like-named read-outs stand apart in the source and are kept apart here.

The nature of one data set: in vivo. The note with it: rhesus monkey, topical or ocular. The procedure: Male rhesus monkeys weighting 10-14 Kg can be used as the subject. An appropriate area of the monkey's chest is shaved 24 hours before drug application.
Drug formulations comprising the PAEC are applied to a certain area of the chest. The monkey is restrained in a chair to prevent it from touching its chest.
Blood samples are taken at appropriate intervals after the application. The heparinized blood is centrifuged, and the plasma removed and stored at -20° C. until analyzed.
This example show in vivo plasma metoclopramide.HCl levels with a topical gel formulation.
200 mg of metoclopramide.HCl was dissolved in 4 ml of 10% C12 OH in a 1:1 volume mixture of MP/1,2-propanediol. To this solution was added 160 mg of Klucel (hydroxypropylcellulose type HF; Hercules Inc.) and the same stirred thoroughly to obtain a uniform gel. 1.0 ml of the gel was applied to 49 cm^2 of the chest area of the rhesus monkey; the applied area was left open to the air during the experiment.
In Examples 7 and 10, the in vivo Rhesus monkey test earlier described was followed except for modifying as described in Example 7.
49 cm^2 of a polyester non-woven cloth (230 mg) impregnated with 1 ml of 25% C12 OH in a 2:1 volume mixture of MP/1,2-propanediol containing 200 mg of Indomethacin was applied to the upper back of a rhesus monkey; the applied area was occluded with Saran® film.
The plasma level of Indomethacine was analyzed by conventional HPLC.
The in vivo procedure of Example 7 was duplicated except for using propranolol as the active agent in place of the NSAID used, e.g., Indomethacin.

Data set [1] in a line: In vitro skin penetration study with rat skin diffusion cell technique (active agent flux, 8 hours). As to conditions: 25 mg in 1 ml. From the text:
Rat full thickness skins were used in the diffusion cell method of Michaels, AlChE Journal, 21 [5], 985-996, 1975. The rat skin was mounted in the diffusion cell in a vertical position between the upstream and the downstream compartments; the exposed area of the skin approximated 4.15 cm^2.
The skin was excised from the shaved abdominal site of male albino rats weighing 150~300 g, and washed with normal saline solution after the subcutaneous fat was carefully removed with scissors.
The active agent/PAEC solution of known concentration was added to the upper compartment of the cell, which was exposed to the epithelial side of the skin and a normal saline solution was placed in the lower compartment.
The penetration rate was studied in a thermostated bath at 30° C. […]
The flux of the active agent is given in the terms of μg/cm^2 /8 hours. 25 Volume percent component A with respect to component A and component B volume with or without diols and/or triols was used in the composition along with 2.5 weight percent of the active agent. For purposes of comparison, in one instance the result for an adjuvant alone with a diol and/or triol is given.
1,2-propanediol was used as a diol moderator. […]
In the following Examples 6, 8, 9, 11 and 12, in vitro transdermal penetration was again analyzed followed the method of Michaels, AIChE Journal, 21, [5], pp. 985-996 (1975), according to the earlier described procedure. The sample volume was 1 ml unless otherwise indicated and flux of the active agent is given in μg/cm^2 /8 hours. Al percents are volume percents based on the total volume of the system unless otherwise indicated.
25 mg of the NSAID, Indomethacin, Diclofenac sodium or Ibuprofen in 1 ml of various systems were used. […]

In the data set “in vivo” (in vivo), `CCN(CC)CCNC(=O)c1cc(Cl)c(N)cc1OC` [metoclopramide.HCl] registered a concentration at 1 h of 75 ng/mL, a concentration at 2 h of 146 ng/mL, a concentration at 3 h of 178 ng/mL and a concentration at 5 h of 121 ng/mL. In “in vivo” (in vivo), the concentration at 7 h is 93 ng/mL.
Regarding `CC(C)Cc1ccc(C(C)C(=O)O)cc1` (centres unmarked) [Ibuprofen], the “Relative Flux” value was determined as 1.0 in data set [1] (Ibuprofen, 25% C12 OH in N-methyl piperidone (reference)) and 0.48 in data set [1] (Ibuprofen, 25% C12 OH in a 2:1 volume mixture of N-methyl piperidone/1,2-propanediol, relative to 25% C12 OH in N-methyl piperidone).
With `COc1ccc2c(c1)c(CC(=O)O)c(C)n2C(=O)c1ccc(Cl)cc1` [Indomethacin], the “Relative Flux” value in data set [1] (Indomethacin, 25% C12 OH in MP (reference)) was 1.0; in data set [1] (Indomethacin, 25% C12 OH in a 2:1 volume mixture of MP/1,2-propanediol, relative to 25% C12 OH in MP), 0.73. The concentration at 1 h in the data set “in vivo” (in vivo, 1 hour after application, 200 mg in 1 ml 25% C12 OH in 2:1 MP/1,2-propanediol, 49 cm^2 cloth, upper back, occluded, read-out: Indomethacin plasma level) turned out to be 619 ng/mL. Besides, the concentration at 3 h in “in vivo” (in vivo, 3 hours after application, 200 mg in 1 ml 25% C12 OH in 2:1 MP/1,2-propanediol, 49 cm^2 cloth, upper back, occluded, read-out: Indomethacin plasma level) stood at 452 ng/mL. Also, the concentration at 5 h in the data set “in vivo” (in vivo, 5 hours after application, 200 mg in 1 ml 25% C12 OH in 2:1 MP/1,2-propanediol, 49 cm^2 cloth, upper back, occluded, read-out: Indomethacin plasma level) was found to be 388 ng/mL. Further, in the data set “in vivo” (in vivo, 7 hours after application, 200 mg in 1 ml 25% C12 OH in 2:1 MP/1,2-propanediol, 49 cm^2 cloth, upper back, occluded, read-out: Indomethacin plasma level), the concentration at 7 h was found to be 429 ng/mL.
In the case of `CC(C)NCC(O)COc1cccc2ccccc12` (centres unmarked) [propranolol], in “in vivo” (plasma, 200 mg, 1 hour after application, procedure of Example 7 (25% C12 OH in 2:1 MP/1,2-propanediol, 49 cm^2, upper back, occluded), read-out: Propranolol plasma level), the concentration at 1 h is 30 ng/mL. Further, in “in vivo” (plasma, 200 mg, 3 hours after application, procedure of Example 7 (25% C12 OH in 2:1 MP/1,2-propanediol, 49 cm^2, upper back, occluded), read-out: Propranolol plasma level), the concentration at 3 h was 115 ng/mL. In addition, the concentration at 5 h in “in vivo” (plasma, 200 mg, 5 hours after application, procedure of Example 7 (25% C12 OH in 2:1 MP/1,2-propanediol, 49 cm^2, upper back, occluded), read-out: Propranolol plasma level) amounted to 130 ng/mL. In the data set “in vivo” (plasma, 200 mg, 7 hours after application, procedure of Example 7 (25% C12 OH in 2:1 MP/1,2-propanediol, 49 cm^2, upper back, occluded), read-out: Propranolol plasma level), the concentration at 7 h is 90 ng/mL.
